Measured values as given in patent US10597377B2, “Somatostatin modulators and uses thereof” (priority 2016, dated 2020).
pEC50: −log10 of the molar value.

Target: human SSTR2 (Homo sapiens (Human), UniProt P30874)
Test: Human SSTR2 intracellular cAMP functional assay for agonists (CHO-K1 cells, HTRF)
Type: cell-based
Conditions: inhibition of cAMP activities via human SST2R; CHO-K1 cells stably expressing human SSTR2
Method: Functional Assay for SSTR2 Agonists
General overview: All five SSTR subtypes are Gi coupled G-protein coupled receptors (GPCRs) that lead to decreases in intracellular cyclic AMP (cAMP) when activated by an agonist. […] Human SSTR2 intracellular cAMP assay is described below. The human SSTR1, 3, 4 and 5 assays follow the same protocol of SSTR2.
The cells are cultured at 37° C., 5% CO2 and 95% humidity. […] The cells are incubated for 20 minutes at 37° C. […] The cells are treated with 50 μL of lysis buffer (HRTF cAMP kit, Cisbio). […] The time-resolved fluorescent signal is read with a Tecan M1000Pro multiplate reader. The intracellular cAMP concentrations are calculated by regression to a standard curve and are plotted vs. the concentration of the compounds of the invention and the EC50 of the compounds are calculated using standard methods. All data manipluations are in GraphPad Prism v6.

Sequence of human SSTR2 (P30874 whole entry): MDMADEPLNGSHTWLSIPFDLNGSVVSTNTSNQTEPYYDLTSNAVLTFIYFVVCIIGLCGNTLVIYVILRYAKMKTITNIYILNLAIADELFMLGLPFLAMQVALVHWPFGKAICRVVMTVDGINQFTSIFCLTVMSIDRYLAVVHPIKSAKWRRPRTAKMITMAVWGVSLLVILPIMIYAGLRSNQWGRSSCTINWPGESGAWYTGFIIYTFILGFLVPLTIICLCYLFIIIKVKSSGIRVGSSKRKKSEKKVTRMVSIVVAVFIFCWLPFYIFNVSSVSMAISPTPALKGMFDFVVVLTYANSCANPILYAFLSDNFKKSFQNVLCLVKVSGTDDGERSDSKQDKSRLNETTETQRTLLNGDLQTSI

pEC50 | Compound
> 8.00 | N#Cc1cncc(-c2ccc3ncc(-c4cc(F)cc(F)c4)c(N4CC[C@H]5NCCO[C@@H]5C4)c3c2)c1N (racemic) [2-244, 5-{4-[trans-octahydro-1H-pyrido[3,4-b]morpholin-6-yl]-3-(3,5-difluorophenyl)quinolin-6-yl}-4-aminopyridine-3-carbonitrile]
> 8.00 | Nc1ncccc1-c1ccc2ncc(-c3cc(F)cc(F)c3)c(N3CC[C@H]4NCCO[C@@H]4C3)c2c1 (racemic) [2-246]
> 8.00 | Cc1cc(F)cc(-c2nnc3cc(Cl)c(-c4cc(F)cc(C(N)=O)c4)cc3c2N2CC[C@@H](N)[C@H](O)C2)c1 (relative stereo) [1-26, 3-{4-[trans-4-amino-3-hydroxypiperidin-1-yl]-7-chloro-3-(3-fluoro-5-methylphenyl)cinnolin-6-yl}-5-fluorobenzamide]
> 8.00 | C#Cc1ccnc(-c2ccc3ncc(-c4cc(F)cc(F)c4)c(N4CC[C@H]5NCCO[C@@H]5C4)c3c2)c1N [2-277, 2-{4-[trans-octahydro-1H-pyrido[3,4-b]morpholin-6-yl]-3-(3,5-difluorophenyl)quinolin-6-yl]-4-ethynylpyridin-3-amine]

Compound | pEC50
COC(=O)Nc1c(F)cncc1-c1ccc2ncc(-c3cc(C)cc(F)c3)c(N3CCC(N)CC3)c2c1 [2-171, methyl N-{3-[4-(4-aminopiperidin-1-yl)-3-(3-fluoro-5-methylphenyl)quinolin-6-yl]-5-fluoropyridin-4-yl}carbamate] | > 8.00
COC(=O)Nc1ncc(F)cc1-c1ccc2ncc(-c3cc(C)cc(F)c3)c(N3CCC(N)CC3)c2c1 [2-182, methyl N-{3-[4-(4-aminopiperidin-1-yl)-3-(3-fluoro-5-methylphenyl)quinolin-6-yl]-5-fluoropyridin-2-yl}carbamate] | > 8.00
Cc1cc(F)cc(-c2cnc3ccc(-c4cc(F)cc(C#N)c4O)nc3c2N2CCC(N)CC2)c1 [3-2, 3-[8-(4-aminopiperidin-1-yl)-7-(3-fluoro-5-methylphenyl)-1,5-naphthyridin-2-yl]-5-fluoro-2-hydroxybenzonitrile] | > 8.00
